Experimental data published in patent CN114790169A, “四氢喹啉相关二环类化合物及其应用” (Guangzhou Institute of Biomedicine and Health of CAS, priority 2016, dated 2017).

Target: T1, RORγ (Homo sapiens, UniProt P51449)
T1 sequence (P51449 1-518): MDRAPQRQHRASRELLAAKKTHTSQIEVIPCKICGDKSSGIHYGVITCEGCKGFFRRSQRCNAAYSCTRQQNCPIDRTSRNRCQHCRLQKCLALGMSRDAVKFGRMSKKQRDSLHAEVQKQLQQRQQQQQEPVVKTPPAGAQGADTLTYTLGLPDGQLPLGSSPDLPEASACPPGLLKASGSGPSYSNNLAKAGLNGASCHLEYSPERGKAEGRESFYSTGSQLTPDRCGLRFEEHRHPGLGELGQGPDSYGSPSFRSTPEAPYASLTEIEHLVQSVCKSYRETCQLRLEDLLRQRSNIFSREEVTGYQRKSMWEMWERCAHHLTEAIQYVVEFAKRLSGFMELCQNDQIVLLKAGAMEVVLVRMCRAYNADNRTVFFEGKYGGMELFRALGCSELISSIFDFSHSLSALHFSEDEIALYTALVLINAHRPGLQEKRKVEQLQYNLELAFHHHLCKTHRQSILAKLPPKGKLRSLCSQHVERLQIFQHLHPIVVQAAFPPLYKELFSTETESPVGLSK
Test: not given
Conditions: literature, in words; cited from earlier work

Row | Molecule | action on RORγ
1 | C[C@H]1O[C@@H](O[C@H]2[C@@H](O)C[C@H](O[C@H]3[C@@H](O)C[C@H](O[C@H]4CC[C@@]5(C)[C@H](CC[C@@H]6[C@@H]5C[C@@H](O)[C@]5(C)[C@@H](C7=CC(=O)OC7)CC[C@]65O)C4)O[C@@H]3C)O[C@@H]2C)C[C@H](O)[C@@H]1O [地高辛] | 可以作为RORγ的选择性调控物质

Target: T2, RORα (Homo sapiens, UniProt P35398)
T2 sequence (P35398 1-523): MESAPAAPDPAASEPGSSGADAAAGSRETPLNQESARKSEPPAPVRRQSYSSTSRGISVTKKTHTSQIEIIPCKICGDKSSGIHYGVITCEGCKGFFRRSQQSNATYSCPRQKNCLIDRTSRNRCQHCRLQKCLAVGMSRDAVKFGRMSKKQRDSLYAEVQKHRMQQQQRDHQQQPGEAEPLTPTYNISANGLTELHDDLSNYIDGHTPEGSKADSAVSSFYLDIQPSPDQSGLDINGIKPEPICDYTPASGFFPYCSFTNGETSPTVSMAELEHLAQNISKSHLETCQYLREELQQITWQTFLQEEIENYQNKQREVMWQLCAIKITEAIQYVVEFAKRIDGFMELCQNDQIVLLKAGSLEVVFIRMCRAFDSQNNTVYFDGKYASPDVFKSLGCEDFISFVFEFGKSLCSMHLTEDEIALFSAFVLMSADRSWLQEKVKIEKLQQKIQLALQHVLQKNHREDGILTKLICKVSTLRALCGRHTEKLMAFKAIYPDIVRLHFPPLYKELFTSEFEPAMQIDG
Test: not given
Conditions: literature, in words; cited from earlier work

Row | Molecule | action on RORα
2 | O=S(=O)(Nc1ccc(C(O)(C(F)(F)F)C(F)(F)F)cc1)c1cccs1 [SR3335] | RORα的选择性反向激动剂
3 | O=S(=O)(c1ccccc1)N(CC(F)(F)F)c1ccc(C(O)(C(F)(F)F)C(F)(F)F)cc1 [T1317] | 可以与RORγ和RORα结合并调控它们的活性
4 | CC(=O)Nc1nc(C)c(S(=O)(=O)Nc2ccc(C(O)(C(F)(F)F)C(F)(F)F)cc2)s1 [SR1001] | 对RORγ和RORα有双重作用的反向激动剂

System: not given
Test: not given
Conditions: literature, in words; cited from earlier work

Row | Molecule | side effects
5 | C[C@H]1O[C@@H](O[C@H]2[C@@H](O)C[C@H](O[C@H]3[C@@H](O)C[C@H](O[C@H]4CC[C@@]5(C)[C@H](CC[C@@H]6[C@@H]5C[C@@H](O)[C@]5(C)[C@@H](C7=CC(=O)OC7)CC[C@]65O)C4)O[C@@H]3C)O[C@@H]2C)C[C@H](O)[C@@H]1O [地高辛] | 有很强的副作用

System: other nuclear receptors (LXRα/β, FXR, PXR) [其他核受体 (LXRα/β,FXR,PXR)]
Test: not given
Conditions: literature, in words; cited from earlier work

Row | Molecule | action on other nuclear receptors
6 | O=S(=O)(c1ccccc1)N(CC(F)(F)F)c1ccc(C(O)(C(F)(F)F)C(F)(F)F)cc1 [T1317] | 还与至少四种其他核受体 (LXRα/β,FXR,PXR)有作用

Target: T3, glucocorticoid receptor [糖皮质激素受体] (Homo sapiens, UniProt P04150)
T3 sequence (P04150 1-777): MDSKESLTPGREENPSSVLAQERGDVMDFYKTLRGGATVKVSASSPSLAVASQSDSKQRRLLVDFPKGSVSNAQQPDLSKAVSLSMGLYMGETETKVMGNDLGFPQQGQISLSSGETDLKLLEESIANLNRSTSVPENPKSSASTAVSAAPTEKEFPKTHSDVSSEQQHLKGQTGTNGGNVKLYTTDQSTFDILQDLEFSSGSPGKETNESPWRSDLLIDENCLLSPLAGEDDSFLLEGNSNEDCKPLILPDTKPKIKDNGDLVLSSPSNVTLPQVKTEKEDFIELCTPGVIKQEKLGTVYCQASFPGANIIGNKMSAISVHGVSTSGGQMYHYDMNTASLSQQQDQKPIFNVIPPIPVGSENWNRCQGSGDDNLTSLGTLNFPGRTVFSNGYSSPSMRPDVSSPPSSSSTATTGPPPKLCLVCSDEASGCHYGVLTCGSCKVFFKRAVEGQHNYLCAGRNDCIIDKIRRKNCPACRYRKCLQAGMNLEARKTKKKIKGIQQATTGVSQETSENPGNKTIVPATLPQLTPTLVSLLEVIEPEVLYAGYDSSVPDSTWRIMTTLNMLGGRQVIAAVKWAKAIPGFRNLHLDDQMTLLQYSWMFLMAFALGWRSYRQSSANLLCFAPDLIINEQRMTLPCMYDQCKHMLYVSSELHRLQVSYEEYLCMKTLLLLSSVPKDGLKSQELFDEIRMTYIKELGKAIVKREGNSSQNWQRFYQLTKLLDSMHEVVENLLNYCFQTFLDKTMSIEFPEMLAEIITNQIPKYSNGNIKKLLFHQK
Test: not given
Conditions: literature, in words; cited from earlier work

Row | Molecule | action on glucocorticoid receptor
7 | C[C@H]1[C@H](C)CC[C@]2(C(=O)O)CC[C@]3(C)C(=CC[C@@H]4[C@@]5(C)CC[C@H](O)C(C)(C)[C@@H]5CC[C@]43C)[C@H]12 [熊果酸] | 对糖皮质激素受体也有作用

Target: T4, nuclear receptor RORγ [核受体RORγ] (Homo sapiens, UniProt P51449)
T4 construct: 重组质粒:Gal4-RORγLBD:25ng; expressed in transfected cells; host or cells: 293T (human kidney epithelial cell line)
T4 sequence (P51449 269-508 limits assumed): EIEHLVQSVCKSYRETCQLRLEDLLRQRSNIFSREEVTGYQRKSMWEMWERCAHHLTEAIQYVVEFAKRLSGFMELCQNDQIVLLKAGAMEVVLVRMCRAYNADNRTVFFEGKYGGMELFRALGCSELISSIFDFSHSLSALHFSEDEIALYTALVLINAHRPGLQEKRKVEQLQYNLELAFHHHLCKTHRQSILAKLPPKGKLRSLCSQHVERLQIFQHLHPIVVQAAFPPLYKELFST
Test: Dual-luciferase reporter assay, inhibition of nuclear receptor RORγ at cell level in 293T cells (Gal4-RORγLBD)
Format: cell-based
Conditions: inhibitory activity against RORγ at cell level; 293T cells, 24 h incubation with compound

Row | IC50 | Molecule
8 | 900 nM | N-(1-(噻吩-2-基磺酰基)-1,2,3,4-四氢喹啉-6-基)-2,3-二氢苯并[b][1,4]二氧杂环己烯 -6-磺酰胺 [实施例66]
9 | 940 nM | COC(=O)c1ccc(CS(=O)(=O)Nc2ccc3c(c2)N(S(=O)(=O)c2ccc(F)cc2)CCC3)cc1 [实施例23, 4-((N-(1-((4-氟苯基)磺酰基)-1,2,3,4-四氢喹啉-7-基)氨磺酰)甲基)苯甲酸甲酯]
10 | 690 nM | O=S(=O)(Nc1ccc2c(c1)N(S(=O)(=O)c1ccc(F)cc1)CCO2)c1ccc2c(c1)OCCO2 [实施例12, N-(4-((4-氟苯基)磺酰基)-3,4-二氢-2H-苯并[b][1,4]恶嗪-6-基)-2,3-二氢苯并[b] [1,4]二氧杂环己烯-6-磺酰胺]
11 | 700 nM | COC(=O)c1ccccc1S(=O)(=O)N1CCCc2ccc(NS(=O)(=O)c3ccc4c(c3)OCCO4)cc21 [实施例52, 2-((7-(2,3-二氢苯并[b][1,4]二氧杂环己烯-6-磺酰基)-3,4-二氢喹啉-1(2H) -基)磺酰基)苯甲酸甲酯]
12 | 740 nM | O=S(=O)(Nc1ccc2c(c1)N(S(=O)(=O)Cc1ccc(F)cc1)CCC2)c1ccc(F)cc1F [实施例28, 2,4-二氟-N-(1-((4-氟苄基)磺酰基)-1,2,3,4-四氢喹啉-7-基)苯磺酰胺]
13 | 930 nM | COC(=O)c1cccc(CS(=O)(=O)N2CCCc3ccc(NS(=O)(=O)c4ccc(F)cc4F)cc32)c1 [实施例30, 3-(((7-(2,4-二氟苯基磺酰氨基)-3,4-二氢喹啉-1(2H)-基)磺酰基)甲基)苯甲酸甲酯]
14 | 880 nM | COC(=O)c1ccc(S(=O)(=O)Nc2ccc3c(c2)N(S(=O)(=O)c2ccc(F)cc2)CCC3)cc1 [实施例19, 4-(N-(1-((4-氟苯基)磺酰基)-1,2,3,4-四氢喹啉-7-基)氨磺酰)苯甲酸甲酯]
15 | 790 nM | O=S(=O)(Nc1ccc2c(c1)N(S(=O)(=O)c1ccc(F)cc1)CCC2)c1ccc2c(c1)OCCO2 [实施例8, N-(1-((4-氟苯基)磺酰基)-1,2,3,4-四氢喹啉-7-基)-2,3-二氢苯并[b][1,4] 二氧杂环己烯-6-磺酰胺]
16 | 740 nM | Cc1ccc(S(=O)(=O)Nc2ccc3c(c2)N(S(=O)(=O)c2ccc(F)cc2)CCC3)s1 [实施例5, N-(1-((4-氟苯基)磺酰基)-1,2,3,4-四氢-7-基)-5-甲基噻吩-2-磺酰胺]
17 | 410 nM | COC(=O)c1ccccc1S(=O)(=O)N1CCCc2ccc(NS(=O)(=O)c3ccc(OC)cc3)cc21 [实施例55, 2-((7-((4-甲氧基苯基)磺酰氨基)-3,4-二氢喹啉-1(2H)-基)磺酰基)苯甲酸甲酯]
18 | 790 nM | COC(=O)c1ccccc1S(=O)(=O)N1CCCc2ccc(NS(=O)(=O)c3cccc(Cl)c3F)cc21 [实施例53, 2-((7-(3-氯-2-氟苯基磺酰氨基)-3,4-二氢喹啉-1(2H)-基)磺酰基)苯甲酸甲酯]
19 | 160 nM | COC(=O)c1ccccc1S(=O)(=O)N1CCCc2ccc(NS(=O)(=O)c3cc(OC)ccc3OC)cc21 [实施例56, 2-((7-((2,5-二甲氧基苯基)磺酰氨基)-3,4-二氢喹啉-1(2H)-基) 磺酰基)苯甲酸甲酯]
20 | 160 nM | COC(=O)c1ccccc1S(=O)(=O)N1CCCc2ccc(NS(=O)(=O)c3ccc(F)cc3F)cc21 [实施例31, 2-((7-(2,4-二氟苯基磺酰氨基)-3,4-二氢喹啉-1(2H)-基)磺酰基)苯甲酸甲酯]
21 | 230 nM | COC(=O)c1ccccc1S(=O)(=O)N1CCCc2ccc(NS(=O)(=O)c3c(Cl)cccc3Cl)cc21 [实施例54, 2-((7-(2,6-二氯苯基磺酰氨基)-3,4-二氢喹啉-1(2H)-基)磺酰基)苯甲酸甲酯]
22 | 580 nM | O=S(=O)(Nc1ccc2c(c1)N(S(=O)(=O)c1cccs1)CCC2)c1ccc2c(c1)OCCO2 [实施例48, N-(1-(噻吩-2-基磺酰基)-1,2,3,4-四氢喹啉-7-基)-2,3-二氢苯并[b][1,4]二氧杂环己烯-6-磺酰胺]

Same assay, conditions: luciferase, RORγ cell level; reference drug T1317

Row | inhibitory activity compared with reference drug | Molecule
23 | 比对照药活性相当 | COC(=O)c1cccc(CS(=O)(=O)Nc2ccc3c(c2)N(S(=O)(=O)c2ccc(F)cc2)CCC3)c1 [实施例24, 3-((N-(1-((4-氟苯基)磺酰基)-1,2,3,4-四氢喹啉-7-基)氨磺酰)甲基)苯甲酸甲酯]
24 | 比对照药活性相当 | CS(=O)(=O)c1cccc(S(=O)(=O)Nc2ccc3c(c2)N(S(=O)(=O)c2ccc(F)cc2)CCC3)c1 [实施例22, N-(1-((4-氟苯基)磺酰基)-1,2,3,4-四氢喹啉-7-基)-3-(甲基磺酰基)苯磺酰胺]
25 | 比对照药活性更好 | COC(=O)c1ccccc1S(=O)(=O)N1CCCc2ccc(NS(=O)(=O)c3ccc(F)cc3F)cc21 [实施例31, 2-((7-(2,4-二氟苯基磺酰氨基)-3,4-二氢喹啉-1(2H)-基)磺酰基)苯甲酸甲酯]
